Target: recombinant IL4I1 (Homo sapiens (Human), UniProt Q96RQ9)
Assay: IL4I1 Enzymatic Assay (Amplex Red/HRP coupled fluorescence detection of H2O2)
Assay type: biochemical
Details: 240 min; recombinant IL4I1, four-hour pre-incubation with compound
Method in brief: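 Ten-point, 1:3 compound titrations were fitted by four-parameter sigmoidal regression to give EC50. Resorufin fluorescence (544/590 nm) from Amplex Red/HRP-coupled H2O2 detection was read 120 min after adding 1 mM each aromatic amino acid to 1 nM IL4I1, following a 4 h compound pre-incubation in pH 7.0 Hepes buffer.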

Sequence of recombinant IL4I1 (Q96RQ9 22-567): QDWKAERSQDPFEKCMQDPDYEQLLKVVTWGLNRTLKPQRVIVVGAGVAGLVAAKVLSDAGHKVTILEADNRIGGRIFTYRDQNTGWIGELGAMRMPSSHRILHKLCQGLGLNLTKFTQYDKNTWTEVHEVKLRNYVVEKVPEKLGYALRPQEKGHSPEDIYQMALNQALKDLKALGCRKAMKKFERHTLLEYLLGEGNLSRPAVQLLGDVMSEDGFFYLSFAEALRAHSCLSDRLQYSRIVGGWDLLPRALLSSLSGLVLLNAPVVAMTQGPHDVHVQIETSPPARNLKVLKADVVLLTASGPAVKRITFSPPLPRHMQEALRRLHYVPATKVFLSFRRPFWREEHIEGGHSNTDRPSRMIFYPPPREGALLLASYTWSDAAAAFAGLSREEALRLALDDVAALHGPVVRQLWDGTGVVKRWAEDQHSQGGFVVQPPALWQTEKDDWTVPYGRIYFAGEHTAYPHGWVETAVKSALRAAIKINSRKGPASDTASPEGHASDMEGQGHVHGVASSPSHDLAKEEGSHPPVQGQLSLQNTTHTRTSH

EC50	Compound
36 nM	O=C1C(=O)N(C23CC(C2)C3)CCN1Cc1ccc(-n2ccnn2)nn1 [Example 402, 1-((6-(1H-1,2,3-triazol-1-yl)pyridazin-3-yl)methyl)-4-(bicyclo[1.1.1]pentan-1-yl)piperazine-2,3-dione]
17 nM	O=c1c(=O)n(C23CC(C2)C3)ccn1Cc1ccc(-n2nccn2)nn1 [Example 403, 1-((6-(2H-1,2,3-triazol-2-yl)pyridazin-3-yl)methyl)-4-(bicyclo[1.1.1]pentan-1-yl)-1,4-dihydropyrazine-2,3-dione]
10 nM	O=c1c(=O)n(C23CC(C2)C3)ccn1Cc1ccc(-n2ccnn2)nn1 [Example 404, 1-((6-(1H-1,2,3-triazol-1-yl)pyridazin-3-yl)methyl)-4-(bicyclo[1.1.1]pentan-1-yl)-1,4-dihydropyrazine-2,3-dione]
9 nM	O=c1c(=O)n(C2CCC2)ccn1Cc1ccc(-n2nccn2)nc1 [Example 409, 1-((6-(2H-1,2,3-triazol-2-yl)pyridin-3-yl)methyl)-4-cyclobutyl-1,4-dihydropyrazine-2,3-dione]
5 nM	O=c1c(=O)n(C2CCC2)ccn1Cc1ccc(-n2ccnn2)nc1 [Example 410, 1-((6-(1H-1,2,3-triazol-1-yl)pyridin-3-yl)methyl)-4-cyclobutyl-1,4-dihydropyrazine-2,3-dione]
7 nM	O=c1c(=O)n(C23CC(C2)C3)ccn1Cc1ccc(-n2ccnn2)nc1 [Example 411, 1-((6-(1H-1,2,3-triazol-1-yl)pyridin-3-yl)methyl)-4-(bicyclo[1.1.1]pentan-1-yl)-1,4-dihydropyrazine-2,3-dione]
19 nM	O=c1c(=O)n(C23CC(C2)C3)ccn1Cc1ccc(-n2nccn2)nc1 [Example 412, 1-((6-(2H-1,2,3-triazol-2-yl)pyridin-3-yl)methyl)-4-(bicyclo[1.1.1]pentan-1-yl)-1,4-dihydropyrazine-2,3-dione]
15 nM	CC1(n2ccn(Cc3ccc(-n4ccnn4)nc3)c(=O)c2=O)CC1 [Example 414, 1-((6-(1H-1,2,3-triazol-1-yl)pyridin-3-yl)methyl)-4-(1-methylcyclopropyl)-1,4-dihydropyrazine-2,3-dione]
138 nM	CC1(n2ccn(Cc3ccc(-n4nccn4)nc3)c(=O)c2=O)CC1 [Example 415, 1-((6-(2H-1,2,3-triazol-2-yl)pyridin-3-yl)methyl)-4-(1-methylcyclopropyl)-1,4-dihydropyrazine-2,3-dione]
2 nM	O=c1c(=O)n(C23CC(C2)C3)ccn1Cc1cc(-c2cccc(F)c2)on1 [Example 417, 1-(bicyclo[1.1.1]pentan-1-yl)-4-((5-(3-fluorophenyl)isoxazol-3-yl)methyl)-1,4-dihydropyrazine-2,3-dione]
2 nM	O=c1c(=O)n(C23CC(C2)C3)ccn1Cc1cc(-c2ccc(F)cc2)on1 [Example 419, 1-(bicyclo[1.1.1]pentan-1-yl)-4-((5-(4-fluorophenyl)isoxazol-3-yl)methyl)-1,4-dihydropyrazine-2,3-dione]
19 nM	O=c1c(=O)n(C23CC(C2)C3)ccn1Cc1cn(-c2ccccn2)nn1 [Example 427, 1-(bicyclo[1.1.1]pentan-1-yl)-4-((1-(pyridin-2-yl)-1H-1,2,3-triazol-4-yl)methyl)-1,4-dihydropyrazine-2,3-dione]
21 nM	O=c1c(=O)n(C23CC(C2)C3)ccn1Cc1cn(-c2cccnc2)nn1 [Example 428, 1-(bicyclo[1.1.1]pentan-1-yl)-4-((1-(pyridin-3-yl)-1H-1,2,3-triazol-4-yl)methyl)-1,4-dihydropyrazine-2,3-dione]
29 nM	CC1(n2ccn(Cc3cn(-c4cccnc4)nn3)c(=O)c2=O)CC1 [Example 429, 1-(1-methylcyclopropyl)-4-((1-(pyridin-3-yl)-1H-1,2,3-triazol-4-yl)methyl)-1,4-dihydropyrazine-2,3-dione]
183 nM	CC1(n2ccn(Cc3cn(-c4ccccn4)nn3)c(=O)c2=O)CC1 [Example 430, 1-(1-methylcyclopropyl)-4-((1-(pyridin-2-yl)-1H-1,2,3-triazol-4-yl)methyl)-1,4-dihydropyrazine-2,3-dione]
130 nM	N#CC1(n2ccn(Cc3cn(-c4cccnc4)nn3)c(=O)c2=O)CC1 [Example 431, 1-(2,3-dioxo-4-((1-(pyridin-3-yl)-1H-1,2,3-triazol-4-yl)methyl)-3,4-dihydropyrazin-1(2H)-yl)cyclopropane-1-carbonitrile]

The next lines start with the molecule.

Compound	EC50
O=c1c(=O)n(C2CCC2)ccn1Cc1nnc(-c2ccccc2)s1 [Example 396, 1-cyclobutyl-4-((5-phenyl-1,3,4-thiadiazol-2-yl)methyl)-1,4-dihydropyrazine-2,3-dione]	5 nM
O=c1c(=O)n(C2CCC2)ccn1Cc1ccc(-n2nccn2)cn1 [Example 397, 1-((5-(2H-1,2,3-triazol-2-yl)pyridin-2-yl)methyl)-4-cyclobutyl-1,4-dihydropyrazine-2,3-dione]	11 nM
O=C1C(=O)N(C2CCC2)CCN1Cc1ccc(-n2nccn2)nn1 [Example 398, 1-((6-(2H-1,2,3-triazol-2-yl)pyridazin-3-yl)methyl)-4-cyclobutylpiperazine-2,3-dione]	22 nM
O=C1C(=O)N(C2CCC2)CCN1Cc1ccc(-n2nccn2)cc1 [Example 399, 1-(4-(2H-1,2,3-triazol-2-yl)benzyl)-4-cyclobutylpiperazine-2,3-dione]	19 nM
O=C1C(=O)N(C2CCC2)CCN1Cc1ncc(-n2nccn2)cc1F [Example 400, 1-cyclobutyl-4-((3-fluoro-5-(2H-1,2,3-triazol-2-yl)pyridin-2-yl)methyl)piperazine-2,3-dione]	25 nM
O=C1C(=O)N(C23CC(C2)C3)CCN1Cc1ccc(-n2nccn2)nn1 [Example 401, 1-((6-(2H-1,2,3-triazol-2-yl)pyridazin-3-yl)methyl)-4-(bicyclo[1.1.1]pentan-1-yl)piperazine-2,3-dione]	48 nM
O=C1C(=O)N(C23CC(C2)C3)CCN1Cc1ncc(-n2nccn2)cc1F [Example 405, 1-(bicyclo[1.1.1]pentan-1-yl)-4-((3-fluoro-5-(2H-1,2,3-triazol-2-yl)pyridin-2-yl)methyl)piperazine-2,3-dione]	23 nM
O=C1C(=O)N(C23CC(C2)C3)CCN1Cc1ccc(-n2nccn2)cc1 [Example 406, 1-(4-(2H-1,2,3-triazol-2-yl)benzyl)-4-(bicyclo[1.1.1]pentan-1-yl)piperazine-2,3-dione]	15 nM
O=C1C(=O)N(C23CC(C2)C3)CCN1Cc1ccc(-n2nccn2)cc1F [Example 407, 1-(bicyclo[1.1.1]pentan-1-yl)-4-(2-fluoro-4-(2H-1,2,3-triazol-2-yl)benzyl)piperazine-2,3-dione]	27 nM
O=c1c(=O)n([C@H]2C[C@H]3C[C@H]3C2)ccn1Cc1ccc(-n2nccn2)cn1 [Example 408, 1-((5-(2H-1,2,3-triazol-2-yl)pyridin-2-yl)methyl)-4-((cis)-bicyclo[3.1.0]hexan-3-yl)-1,4-dihydropyrazine-2,3-dione]	8 nM
N#CC1(n2ccn(Cc3ccc(-n4nccn4)cn3)c(=O)c2=O)CC1 [Example 413, 1-(4-((5-(2H-1,2,3-triazol-2-yl)pyridin-2-yl)methyl)-2,3-dioxo-3,4-dihydropyrazin-1(2H)-yl)cyclopropane-1-carbonitrile]	66 nM
O=c1c(=O)n([C@H]2C[C@H]3C[C@H]3C2)ccn1Cc1ccc(-c2cccnc2)nn1 [Example 416, 1-((cis)-bicyclo[3.1.0]hexan-3-yl)-4-((6-(pyridin-3-yl)pyridazin-3-yl)methyl)-1,4-dihydropyrazine-2,3-dione]	28 nM
O=C1C(=O)N(C23CC(C2)C3)CCN1Cc1cc(-c2ccc(F)cc2)on1 [Example 418, 1-(bicyclo[1.1.1]pentan-1-yl)-4-((5-(4-fluorophenyl)isoxazol-3-yl)methyl)piperazine-2,3-dione]	6 nM
CC1(n2ccn(Cc3cc(-c4ccccc4)on3)c(=O)c2=O)CCC1 [Example 420, 1-(1-methylcyclobutyl)-4-((5-phenylisoxazol-3-yl)methyl)-1,4-dihydropyrazine-2,3-dione]	5 nM
CC1(n2ccn(Cc3cc(-c4cccc(F)c4)on3)c(=O)c2=O)CCC1 [Example 421, 1-((5-(3-fluorophenyl)isoxazol-3-yl)methyl)-4-(1-methylcyclobutyl)-1,4-dihydropyrazine-2,3-dione]	5 nM
CC1(n2ccn(Cc3cc(-c4ccc(F)cc4)on3)c(=O)c2=O)CCC1 [Example 422, 1-((5-(4-fluorophenyl)isoxazol-3-yl)methyl)-4-(1-methylcyclobutyl)-1,4-dihydropyrazine-2,3-dione]	5 nM
N#Cc1ccc(-c2cc(CN3CCN(C45CC(C4)C5)C(=O)C3=O)no2)cc1 [Example 423, 4-(3-((4-(bicyclo[1.1.1]pentan-1-yl)-2,3-dioxopiperazin-1-yl)methyl)isoxazol-5-yl)benzonitrile]	19 nM
N#Cc1ccccc1-c1cc(CN2CCN(C34CC(C3)C4)C(=O)C2=O)no1 [Example 424, 2-(3-((4-(bicyclo[1.1.1]pentan-1-yl)-2,3-dioxopiperazin-1-yl)methyl)isoxazol-5-yl)benzonitrile]	19 nM
O=C1C(=O)N(C2CCC2)CCN1Cc1ncc(-c2cccc(F)c2)s1 [Example 425, 1-cyclobutyl-4-((5-(3-fluorophenyl)thiazol-2-yl)methyl)piperazine-2,3-dione]	8 nM
O=C1C(=O)N(C2CCC2)CCN1Cc1ncc(-c2ccccc2F)s1 [Example 426, 1-cyclobutyl-4-((5-(2-fluorophenyl)thiazol-2-yl)methyl)piperazine-2,3-dione]	5 nM
O=C1C(=O)N(C2CCC2)CCN1Cc1noc(-c2ccccn2)c1Br [Example 432, 1-((4-bromo-5-(pyridin-2-yl)isoxazol-3-yl)methyl)-4-cyclobutylpiperazine-2,3-dione]	17 nM
O=C1C(=O)N(c2ccccn2)CCN1Cc1ccc(-c2ccccc2)nn1 [Example 433, 1-((6-phenylpyridazin-3-yl)methyl)-4-(pyridin-2-yl)piperazine-2,3-dione]	37 nM

Reference: patent US20240246937A1 (MERCK SHARP & DOHME LLC, priority 2021, published 2024)
